*1 amine or outer side, *2 acyl side, *3 side chain or, on linkers, in order; H or OH if unused. Where a SMILES comes first, the peptide text is derived from it. Bridges are numbered along the chain shown (N, C = ends). [ ]: non-standard residue; d: D form. The star is where a group is joined. hPhe(3-Cl-4-CF3) = N[C@@H](CCc1ccc(C(F)(F)F)c(Cl)c1)C(=O)O; X47 = O=C([C@H](Cc1ccc(C(F)(F)F)cc1)N(CCCF)[*:1])[*:2]; NPrPhe(4-CF3) = CCCN[C@@H](Cc1ccc(C(F)(F)F)cc1)C(=O)O; NMeGly(cPent) = CN[C@H](C(=O)O)C1CCCC1; NMeD = CN[C@@H](CC(=O)O)C(=O)O; NMeL = CN[C@@H](CC(C)C)C(=O)O; Morpholide = C1CN(*)CCO1; Ac5c = NC1(C(=O)O)CCCC1; Ac4c = NC1(C(=O)O)CCC1; NEtG = CCNCC(=O)O; Sar = CNCC(=O)O
Tests used:
[1] = target: GDP-bound HRAS wild-type protein (Homo sapiens, UniProt P01112); experiment: Binding to HRAS by surface plasmon resonance (SPR), Single Cycle Kinetics; conditions: for HRAS/KRAS (ratio of KD value with respect to HRAS to KD value with respect to KRAS): GDP-bound HRAS wild-type vs GDP-bound KRAS wild-type
[2] = target: GDP-bound NRAS wild-type protein (Homo sapiens, UniProt P01111); experiment: Binding to NRAS by surface plasmon resonance (SPR), Single Cycle Kinetics; conditions: for NRAS/KRAS (ratio of KD value with respect to NRAS to KD value with respect to KRAS): GDP-bound NRAS wild-type vs GDP-bound KRAS wild-type
GDP-bound NRAS wild-type protein, sequence (P01111 whole entry): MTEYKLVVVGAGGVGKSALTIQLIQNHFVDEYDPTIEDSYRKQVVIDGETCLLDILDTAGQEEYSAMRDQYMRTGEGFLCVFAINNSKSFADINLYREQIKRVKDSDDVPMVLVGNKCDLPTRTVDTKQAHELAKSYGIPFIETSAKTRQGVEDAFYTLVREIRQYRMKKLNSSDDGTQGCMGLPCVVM

GDP-bound HRAS wild-type protein, sequence (P01112 whole entry): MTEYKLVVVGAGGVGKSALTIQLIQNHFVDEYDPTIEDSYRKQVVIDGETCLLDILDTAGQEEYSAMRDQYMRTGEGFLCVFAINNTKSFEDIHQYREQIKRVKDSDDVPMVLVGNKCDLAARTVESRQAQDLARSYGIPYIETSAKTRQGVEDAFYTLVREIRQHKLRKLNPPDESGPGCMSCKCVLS

## CC[C@H](C)[C@@H]1NC(=O)[C@H](CC(C)C)N(C)C(=O)C[C@@H](C(=O)N2CCOCC2)N(C)C(=O)[C@H](C2CCCC2)N(C)C(=O)C2(CCCC2)NC(=O)[C@@H]2CCCN2C(=O)[C@H](CCc2ccc(C(F)(F)F)c(Cl)c2)NC(=O)CN(C)C(=O)[C@H](Cc2ccc(C(F)(F)F)cc2)N(CCCF)C(=O)CN(C)C(=O)CN(C)C1=O [PP0524] ([NMeL]I[Sar][Sar][X47][Sar][hPhe(3-Cl-4-CF3)]P[Ac5c][NMeGly(cPent)][NMeD]-Morpholide; lactam N-11)
[1]; KD ratio HRAS/KRAS, SPR
  HRAS/KRAS (ratio of KD value with respect to GDP-bound HRAS wild-type protein to KD value with respect to KRAS): C (A compound having a KD ratio of 0.1 or more and less than 3 is denoted as C)
[2]; KD ratio NRAS/KRAS, SPR
  NRAS/KRAS (ratio of KD value with respect to GDP-bound NRAS wild-type protein to KD value with respect to KRAS): B (a compound having 3 or more and less than 10 is denoted as B)

## CCC(CC)[C@H]1C(=O)N(C)[C@H](C(=O)N2CCCC2)CC(=O)N(C)[C@H]2CCC/C=C/c3ccc(cc3)C[C@@H](C(=O)N(C)CC(=O)N[C@@H](CCc3ccc(Cl)c(Cl)c3)C(=O)N3CCC[C@H]3C(=O)NC3(CC(C)(C)C3)C(=O)N1C)N1CC/C=C\C[C@@H](C1=O)N(C)C(=O)CN(C)C(=O)[C@H]([C@@H](C)CC)NC2=O [PP2604]
[1]; KD ratio HRAS/KRAS, class symbols
  HRAS/KRAS (ratio of KD value with respect to GDP-bound HRAS wild-type protein to KD value with respect to KRAS): A (a compound having 10 or more and less than 20 is denoted as A)
[2]; KD ratio NRAS/KRAS, class symbols
  NRAS/KRAS (ratio of KD value with respect to GDP-bound NRAS wild-type protein to KD value with respect to KRAS): AA (a compound having 20 or more is denoted as AA)

## CCO[C@@H]1C[C@H]2C(=O)NC3(CCC3)C(=O)N(C)[C@@H](C3CCCC3)C(=O)N(C)[C@H](C(=O)N(C)C)CC(=O)N(C)[C@@H](Cc3cccc(C)c3)C(=O)N[C@@H]([C@@H](C)CC)C(=O)N(C)CC(=O)N(C)[C@H]3CCCCCN(C3=O)[C@@H](Cc3ccc(C(F)(F)F)cc3)C(=O)N(C)CC(=O)N[C@@H](CCc3cc(F)c(C(F)(F)F)c(F)c3)C(=O)N2C1 [PP0942]
[1]; SPR
  HRAS/KRAS (ratio of KD value with respect to HRAS to KD value with respect to KRAS): B (a compound having 3 or more and less than 10 is denoted as B)
[2]; SPR
  NRAS/KRAS (ratio of KD value with respect to NRAS to KD value with respect to KRAS): B (a compound having 3 or more and less than 10 is denoted as B)

## CCCN1C(=O)CN(C)C(=O)CN(C)C(=O)[C@H]([C@@H](C)CC)NC(=O)[C@H](CC(C)C)N(C)C(=O)C[C@@H](C(=O)N2CCOCC2)N(C)C(=O)[C@H](C2CCCC2)N(C)C(=O)C2(CCCC2)NC(=O)[C@@H]2CCCN2C(=O)[C@H](CCc2ccc(C(F)(F)F)c(Cl)c2)NC(=O)CN(C)C(=O)[C@@H]1Cc1ccc(C(F)(F)F)cc1 [PP0060] ([NMeL]I[Sar][Sar][NPrPhe(4-CF3)][Sar][hPhe(3-Cl-4-CF3)]P[Ac5c][NMeGly(cPent)][NMeD]-Morpholide; lactam N-11)
[1]; KD ratio HRAS/KRAS, SPR
  HRAS/KRAS (ratio of KD for GDP-bound HRAS wild-type to KD for KRAS): B (a compound having 3 or more and less than 10 is denoted as B)
[2]; KD ratio NRAS/KRAS, SPR
  NRAS/KRAS (ratio of KD for GDP-bound NRAS wild-type to KD for KRAS): B (a compound having 3 or more and less than 10 is denoted as B)

## CCCN1C(=O)CN(C)C(=O)CN(CC)C(=O)[C@H]([C@@H](C)CC)NC(=O)[C@H](CC(C)C)N(C)C(=O)C[C@@H](C(=O)N(C)C)N(C)C(=O)[C@H](C2CCCC2)N(C)C(=O)C2(CCC2)NC(=O)[C@@H]2CCCN2C(=O)[C@H](CCc2ccc(C(F)(F)F)c(Cl)c2)NC(=O)CN(C)C(=O)[C@@H]1Cc1ccc(C(F)(F)F)cc1 [PP0424] ([NMeL]I[NEtG][Sar][NPrPhe(4-CF3)][Sar][hPhe(3-Cl-4-CF3)]P[Ac4c][NMeGly(cPent)][NMeD]-NMe2; lactam N-11)
[1]; KD ratio HRAS/KRAS, SPR
  HRAS/KRAS (ratio of KD value with respect to GDP-bound HRAS wild-type protein to KD value with respect to KRAS): C (A compound having a KD ratio of 0.1 or more and less than 3 is denoted as C)
[2]; KD ratio NRAS/KRAS, SPR
  NRAS/KRAS (ratio of KD value with respect to GDP-bound NRAS wild-type protein to KD value with respect to KRAS): B (a compound having 3 or more and less than 10 is denoted as B)

## CCC[C@H]1C(=O)N[C@@H]([C@@H](C)CC)C(=O)N(C)CC(=O)N(C)[C@H]2C/C=C\CCN(C2=O)[C@@H](Cc2ccc(C)cc2)C(=O)N(C)CC(=O)N[C@@H](CCc2ccc(C(F)(F)F)c(OC)c2)C(=O)N2C[C@H](OCC)C[C@H]2C(=O)NC2(CC(C)(C)C2)C(=O)N(C)[C@@H](CC(C)C)C(=O)N(C)[C@H](C(=O)N(C)C)CC(=O)N1C [PP3008]
[1]; KD ratio HRAS/KRAS, SPR, GDP-bound wild-type proteins
  HRAS/KRAS (ratio of KD value with respect to GDP-bound HRAS wild-type protein to KD value with respect to KRAS): A (a compound having 10 or more and less than 20 is denoted as A)
[2]; KD ratio NRAS/KRAS, SPR, GDP-bound wild-type proteins
  NRAS/KRAS (ratio of KD value with respect to GDP-bound NRAS wild-type protein to KD value with respect to KRAS): A (a compound having 10 or more and less than 20 is denoted as A)

## CCO[C@@H]1C[C@H]2C(=O)NC3(CCC3)C(=O)N(C)[C@@H](C3CCCC3)C(=O)N(C)[C@H](C(=O)N3CCOCC3)CC(=O)N(C)[C@@H](Cc3cccs3)C(=O)N[C@@H]([C@@H](C)CC)C(=O)N(C)CC(=O)N(C)[C@H]3CCCCCN(C3=O)[C@@H](Cc3ccc(C(F)(F)F)cc3)C(=O)N(C)CC(=O)N[C@@H](CCc3cc(F)c(C(F)(F)F)c(F)c3)C(=O)N2C1 [PP1163]
[1]; SPR
  HRAS/KRAS (ratio of KD value with respect to HRAS to KD value with respect to KRAS): B (a compound having 3 or more and less than 10 is denoted as B)
[2]; SPR
  NRAS/KRAS (ratio of KD value with respect to NRAS to KD value with respect to KRAS): B (a compound having 3 or more and less than 10 is denoted as B)

Source: patent US20250230193A1, “CYCLIC COMPOUND HAVING SELECTIVE KRAS INHIBITORY EFFECT ON HRAS AND NRAS” (CHUGAI SEIYAKU KABUSHIKI KAISHA, priority 2022, published 2025)
